Measured values published in US12495798B2, “Nicotinamide compound and herbicidal composition comprising compound” (KOREA RESEARCH INSTITUTE OF CHEMICAL TECHNOLOGY, priority 2019, dated 2025).

Assays:
Type in all cases: in vivo
cocklebur [1] = assay: Herbicidal activity test against upland field weeds (foliar treatment test); parameters: key to Foliar treatment herbicidal activity, Cocklebur: 0 (no control); 100 (complete control); details: 50 g ai/ha, scale 0-100; for pest or weed control at 50 g/ha: Xanthium strumarium
How it was run: (§1)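 Visual 0–100 control ratings relative to untreated plants, taken 14 (or 21) days after spraying foliage at 50 or 75 g a.i./ha. Spray solution: 50% acetone with 0.1% Tween-20; plants kept in greenhouse at 30±5 °C, 14 h light/10 h dark.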

sorghum [2] = assay: as above; details: 50 g ai/ha, scale 0-100; for plant injury at 50 g/ha: Sorghum
How it was run: as §1

corn = assay: Phytotoxicity test for upland field crops (foliar treatment test); parameters: key: 0 (no harm); 9 (complete withered)
How it was run: (§2)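 Post-emergence spray at 19–300 g a.i./ha (acetone/Tween-20 diluent, 100 ml/m²) onto greenhouse-grown plants. Damage rated 7 and 14 (optionally 21) days later on a 0–9 scale relative to untreated plants.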

soybean = assay: as above; parameters: key: 0 (no harm); 9 (complete withered)
How it was run: as §2

cotton = assay: as above; parameters: key: 0 (no harm); 9 (complete withered)
How it was run: as §2

rice = assay: as above; parameters: key: 0 (no harm); 9 (complete withered)
How it was run: as §2

wheat = assay: as above; parameters: key: 0 (no harm); 9 (complete withered)
How it was run: as §2

sorghum [3] = assay: Herbicidal activity test against upland field weeds (soil treatment test); parameters: key to Soil treatment herbicidal activity, Sorghum: 0 (no control); 100 (complete control); details: 50 g ai/ha, scale 0 (no control) to 100 (complete control); for plant injury at 50 g/ha: Sorghum
How it was run: (§3)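 Weed control scored visually on a 0 (none) to 100 (complete) scale versus untreated pots at 14 or 21 days in greenhouse (30±5 °C, 14 h light). Test compounds, 50 or 75 g a.i./ha in 50% acetone/0.1% Tween-20, hand-sprayed onto soil one day post-sowing.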

cocklebur [4] = assay: as above; parameters: key to Soil treatment herbicidal activity, Cocklebur: 0 (no control); 100 (complete control); details: 50 g ai/ha, scale 0 (no control) to 100 (complete control); for pest or weed control at 50 g/ha: Xanthium strumarium
How it was run: as §3

indian jointvetch = assay: Herbicidal activity test against upland field weeds (foliar treatment test); parameters: key to Foliar treatment herbicidal activity, Indian jointvetch: 0 (no control); 100 (complete control); details: 50 g ai/ha, scale 0-100
How it was run: as §1

fall panicum = assay: as above; details: 50 g ai/ha, scale 0-100; for pest or weed control at 50 g/ha: Panicum dichotomiflorum
How it was run: as §1

velvetleaf = assay: Herbicidal activity test against upland field weeds (soil treatment test); parameters: key to Soil treatment herbicidal activity, velvet leaf: 0 (no control); 100 (complete control); details: 50 g ai/ha, scale 0 (no control) to 100 (complete control)
How it was run: as §3

barnyard grass = assay: Herbicidal activity test against upland field weeds (foliar treatment test); parameters: key to Foliar treatment herbicidal activity, barnyard grass: 0 (no control); 100 (complete control); details: 50 g ai/ha, scale 0-100
How it was run: as §1

quack grass = assay: Herbicidal activity test against upland field weeds (soil treatment test); parameters: key to Soil treatment herbicidal activity, quack grass: 0 (no control); 100 (complete control); details: 50 g ai/ha, scale 0 (no control) to 100 (complete control)
How it was run: as §3

[5] = 50 g ai/ha, Corn (7 days after treatment)
[6] = 50 g ai/ha, Corn (14 days after treatment)
[7] = 100 g ai/ha, Corn (7 days after treatment)
[8] = 100 g ai/ha, Corn (14 days after treatment)
[9] = 50 g ai/ha, Soybean (7 days after treatment)
[10] = 50 g ai/ha, Soybean (14 days after treatment)
[11] = 100 g ai/ha, Soybean (7 days after treatment)
[12] = 100 g ai/ha, Soybean (14 days after treatment)
[13] = 50 g ai/ha, Cotton (7 days after treatment)
[14] = 50 g ai/ha, Cotton (14 days after treatment)
[15] = 100 g ai/ha, Cotton (7 days after treatment)
[16] = 100 g ai/ha, Cotton (14 days after treatment)
[17] = 50 g ai/ha, Rice (7 days after treatment)
[18] = 50 g ai/ha, Rice (14 days after treatment)
[19] = 100 g ai/ha, Rice (7 days after treatment)
[20] = 100 g ai/ha, Rice (14 days after treatment)
[21] = 50 g ai/ha, Wheat (7 days after treatment)
[22] = 50 g ai/ha, Wheat (14 days after treatment)
[23] = 100 g ai/ha, Wheat (7 days after treatment)
[24] = 100 g ai/ha, Wheat (14 days after treatment)

SMILES: Cn1nnc(COCc2nc(C(F)(F)F)ccc2C(=O)Nc2nnnn2C)n1 [Compound No. 2-59, N-(1-methyl-1H-tetrazol-5-yl)-2-(((2-methyl-2H-tetrazol-5-yl)methoxy)methyl)-6-(trifluoromethyl)nicotinamide]
- pest or weed control at 50 g/ha (cocklebur [1]): 98%
- plant injury at 50 g/ha (sorghum [2]): 98%
- Foliar treatment phytotoxicity, Corn (corn; [5]): 0
- Foliar treatment phytotoxicity, Corn (corn; [6]): 2
- Foliar treatment phytotoxicity, Corn (corn; [7]): 3
- Foliar treatment phytotoxicity, Corn (corn; [8]): 4
- Foliar treatment phytotoxicity, Soybean (soybean; [9]): 5
- Foliar treatment phytotoxicity, Soybean (soybean; [10]): 7
- Foliar treatment phytotoxicity, Soybean (soybean; [11]): 5
- Foliar treatment phytotoxicity, Soybean (soybean; [12]): 7
- Foliar treatment phytotoxicity, Cotton (cotton; [13]): 3
- Foliar treatment phytotoxicity, Cotton (cotton; [14]): 8
- Foliar treatment phytotoxicity, Cotton (cotton; [15]): 3
- Foliar treatment phytotoxicity, Cotton (cotton; [16]): 9
- Foliar treatment phytotoxicity, Rice (rice; [17]): 3
- Foliar treatment phytotoxicity, Rice (rice; [18]): 4
- Foliar treatment phytotoxicity, Rice (rice; [19]): 3
- Foliar treatment phytotoxicity, Rice (rice; [20]): 6
- Foliar treatment phytotoxicity, Wheat (wheat; [21]): 0
- Foliar treatment phytotoxicity, Wheat (wheat; [22]): 0
- Foliar treatment phytotoxicity, Wheat (wheat; [23]): 0
- Foliar treatment phytotoxicity, Wheat (wheat; [24]): 0
- Soil treatment herbicidal activity, Sorghum (sorghum [3]): 100
- pest or weed control at 50 g/ha (cocklebur [4]): 20%
- pest or weed control at 50 g/ha (indian jointvetch): 98%
- pest or weed control at 50 g/ha (fall panicum): 95%
- Soil treatment herbicidal activity, velvet leaf (velvetleaf): 100
- Foliar treatment herbicidal activity, barnyard grass (barnyard grass): 100
- pest or weed control at 50 g/ha (quack grass): 20%

SMILES: Cn1nnc(COCc2nc(C(F)(F)F)ccc2C(=O)N(C(=O)c2ccccc2)c2nnnn2C)n1 [Compound No. 2-68, N-benzoyl-N-(1-methyl-1H-tetrazol-5-yl)-2-(((2-methyl-2H-tetrazol-5-yl)methoxy)methyl)-6-(trifluoromethyl)nicotinamide]
- Foliar treatment herbicidal activity, Cocklebur (cocklebur [1]): 100
- plant injury at 50 g/ha (sorghum [2]): 80%
- Foliar treatment phytotoxicity, Corn (corn; [5]): 4
- Foliar treatment phytotoxicity, Corn (corn; [6]): 4
- Foliar treatment phytotoxicity, Corn (corn; [7]): 6
- Foliar treatment phytotoxicity, Corn (corn; [8]): 6
- Foliar treatment phytotoxicity, Soybean (soybean; [9]): 5
- Foliar treatment phytotoxicity, Soybean (soybean; [10]): 5
- Foliar treatment phytotoxicity, Soybean (soybean; [11]): 6
- Foliar treatment phytotoxicity, Soybean (soybean; [12]): 7
- Foliar treatment phytotoxicity, Cotton (cotton; [13]): 4
- Foliar treatment phytotoxicity, Cotton (cotton; [14]): 9
- Foliar treatment phytotoxicity, Cotton (cotton; [15]): 5
- Foliar treatment phytotoxicity, Cotton (cotton; [16]): 9
- Foliar treatment phytotoxicity, Rice (rice; [17]): 6
- Foliar treatment phytotoxicity, Rice (rice; [18]): 5
- Foliar treatment phytotoxicity, Rice (rice; [19]): 6
- Foliar treatment phytotoxicity, Rice (rice; [20]): 8
- Foliar treatment phytotoxicity, Wheat (wheat; [21]): 0
- Foliar treatment phytotoxicity, Wheat (wheat; [22]): 0
- Foliar treatment phytotoxicity, Wheat (wheat; [23]): 1
- Foliar treatment phytotoxicity, Wheat (wheat; [24]): 0
- plant injury at 50 g/ha (sorghum [3]): 40%
- Soil treatment herbicidal activity, Cocklebur (cocklebur [4]): 0
- pest or weed control at 50 g/ha (indian jointvetch): 98%
- pest or weed control at 50 g/ha (fall panicum): 98%
- Soil treatment herbicidal activity, velvet leaf (velvetleaf): 100
- Foliar treatment herbicidal activity, barnyard grass (barnyard grass): 100
- Soil treatment herbicidal activity, quack grass (quack grass): 0

SMILES: CCOC(=O)OC(C)N(C(=O)c1ccc(C(F)(F)F)nc1COCc1nnn(C)n1)c1nnnn1C (centres unmarked) [Compound No. 4-8, ethyl(1-(N-(1-methyl-1H-tetrazol-5-yl)-2-(((2-methyl-2H-tetrazol-5-yl)methoxy)methyl)-6-(trifluoromethyl)nicotinamido)ethyl)carbonate]
- Foliar treatment herbicidal activity, Cocklebur (cocklebur [1]): 100
- Foliar treatment herbicidal activity, Sorghum (sorghum [2]): 70
- Foliar treatment phytotoxicity, Corn (corn; [5]): 0
- Foliar treatment phytotoxicity, Corn (corn; [6]): 0
- Foliar treatment phytotoxicity, Corn (corn; [7]): 0
- Foliar treatment phytotoxicity, Corn (corn; [8]): 0
- Foliar treatment phytotoxicity, Soybean (soybean; [9]): 0
- Foliar treatment phytotoxicity, Soybean (soybean; [10]): 0
- Foliar treatment phytotoxicity, Soybean (soybean; [11]): 0
- Foliar treatment phytotoxicity, Soybean (soybean; [12]): 0
- Foliar treatment phytotoxicity, Cotton (cotton; [13]): 0
- Foliar treatment phytotoxicity, Cotton (cotton; [14]): 0
- Foliar treatment phytotoxicity, Cotton (cotton; [15]): 0
- Foliar treatment phytotoxicity, Cotton (cotton; [16]): 0
- Foliar treatment phytotoxicity, Rice (rice; [17]): 0
- Foliar treatment phytotoxicity, Rice (rice; [18]): 0
- Foliar treatment phytotoxicity, Rice (rice; [19]): 0
- Foliar treatment phytotoxicity, Rice (rice; [20]): 0
- Foliar treatment phytotoxicity, Wheat (wheat; [21]): 2
- Foliar treatment phytotoxicity, Wheat (wheat; [22]): 1
- Foliar treatment phytotoxicity, Wheat (wheat; [23]): 2
- Foliar treatment phytotoxicity, Wheat (wheat; [24]): 2
- Soil treatment herbicidal activity, Sorghum (sorghum [3]): 70
- Soil treatment herbicidal activity, Cocklebur (cocklebur [4]): 0
- Foliar treatment herbicidal activity, Indian jointvetch (indian jointvetch): 100
- Foliar treatment herbicidal activity, Fall panicum (fall panicum): 80
- Soil treatment herbicidal activity, velvet leaf (velvetleaf): 100
- Foliar treatment herbicidal activity, barnyard grass (barnyard grass): 98
- Soil treatment herbicidal activity, quack grass (quack grass): 0

SMILES: CON(Cc1nnn(C)n1)c1nc(C(F)(F)F)ccc1C(=O)Nc1nnnn1C [Compound No. 2-30, 2-(methoxy((2-methyl-2H-tetrazol-5-yl)methyl)amino)-N-(1-methyl-1H-tetrazol-5-yl)-6-(trifluoromethyl)nicotinamide]
- pest or weed control at 50 g/ha (cocklebur [1]): 98%
- plant injury at 50 g/ha (sorghum [2]): 20%
- Foliar treatment phytotoxicity, Corn (corn; [5]): 0
- Foliar treatment phytotoxicity, Corn (corn; [6]): 0
- Foliar treatment phytotoxicity, Corn (corn; [7]): 1
- Foliar treatment phytotoxicity, Corn (corn; [8]): 1
- Foliar treatment phytotoxicity, Soybean (soybean; [9]): 0
- Foliar treatment phytotoxicity, Soybean (soybean; [10]): 0
- Foliar treatment phytotoxicity, Soybean (soybean; [11]): 6
- Foliar treatment phytotoxicity, Soybean (soybean; [12]): 6
- Foliar treatment phytotoxicity, Cotton (cotton; [13]): 0
- Foliar treatment phytotoxicity, Cotton (cotton; [14]): 0
- Foliar treatment phytotoxicity, Cotton (cotton; [15]): 3
- Foliar treatment phytotoxicity, Cotton (cotton; [16]): 8
- Foliar treatment phytotoxicity, Rice (rice; [17]): 3
- Foliar treatment phytotoxicity, Rice (rice; [18]): 5
- Foliar treatment phytotoxicity, Rice (rice; [19]): 5
- Foliar treatment phytotoxicity, Rice (rice; [20]): 7
- Foliar treatment phytotoxicity, Wheat (wheat; [21]): 2
- Foliar treatment phytotoxicity, Wheat (wheat; [22]): 1
- Foliar treatment phytotoxicity, Wheat (wheat; [23]): 3
- Foliar treatment phytotoxicity, Wheat (wheat; [24]): 3
- plant injury at 50 g/ha (sorghum [3]): 50%
- pest or weed control at 50 g/ha (cocklebur [4]): 90%
- Foliar treatment herbicidal activity, Indian jointvetch (indian jointvetch): 100
- pest or weed control at 50 g/ha (fall panicum): 60%
- Soil treatment herbicidal activity, velvet leaf (velvetleaf): 100
- pest or weed control at 50 g/ha (barnyard grass; Echinochloa crus-galli): 95%
- Soil treatment herbicidal activity, quack grass (quack grass): 0
